Literature values in PMC11070244 (Current Research in Structural Biology, 2024).

Assays:
BChE [1] = target: T1, BChE (Homo sapiens, UniProt P06276); settings: in vitro experiments; ref Durmaz et al. (2023)
AChE = AChE (Homo sapiens, UniProt P22303); settings: in vitro experiments; ref Durmaz et al. (2023)
BChE [2] = target: T1, BChE; settings: ref Khan et al., 2009

T1 sequence (P06276 29-602, species assumed): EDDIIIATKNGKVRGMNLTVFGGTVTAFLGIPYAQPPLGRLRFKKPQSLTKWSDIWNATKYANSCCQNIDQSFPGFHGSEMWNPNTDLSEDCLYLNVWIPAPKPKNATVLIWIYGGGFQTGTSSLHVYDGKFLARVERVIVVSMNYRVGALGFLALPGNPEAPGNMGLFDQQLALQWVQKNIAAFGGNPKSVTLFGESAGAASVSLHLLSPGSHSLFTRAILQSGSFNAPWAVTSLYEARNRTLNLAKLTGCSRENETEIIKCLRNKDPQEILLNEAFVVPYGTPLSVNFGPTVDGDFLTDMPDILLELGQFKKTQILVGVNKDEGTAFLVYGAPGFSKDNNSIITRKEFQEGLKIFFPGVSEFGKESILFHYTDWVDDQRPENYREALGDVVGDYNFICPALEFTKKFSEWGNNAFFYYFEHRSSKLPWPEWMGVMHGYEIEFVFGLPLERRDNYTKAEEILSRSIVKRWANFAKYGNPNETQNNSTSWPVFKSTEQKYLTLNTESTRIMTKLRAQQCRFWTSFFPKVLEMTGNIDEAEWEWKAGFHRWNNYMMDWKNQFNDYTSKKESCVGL
Sequence of AChE (P22303 32-614): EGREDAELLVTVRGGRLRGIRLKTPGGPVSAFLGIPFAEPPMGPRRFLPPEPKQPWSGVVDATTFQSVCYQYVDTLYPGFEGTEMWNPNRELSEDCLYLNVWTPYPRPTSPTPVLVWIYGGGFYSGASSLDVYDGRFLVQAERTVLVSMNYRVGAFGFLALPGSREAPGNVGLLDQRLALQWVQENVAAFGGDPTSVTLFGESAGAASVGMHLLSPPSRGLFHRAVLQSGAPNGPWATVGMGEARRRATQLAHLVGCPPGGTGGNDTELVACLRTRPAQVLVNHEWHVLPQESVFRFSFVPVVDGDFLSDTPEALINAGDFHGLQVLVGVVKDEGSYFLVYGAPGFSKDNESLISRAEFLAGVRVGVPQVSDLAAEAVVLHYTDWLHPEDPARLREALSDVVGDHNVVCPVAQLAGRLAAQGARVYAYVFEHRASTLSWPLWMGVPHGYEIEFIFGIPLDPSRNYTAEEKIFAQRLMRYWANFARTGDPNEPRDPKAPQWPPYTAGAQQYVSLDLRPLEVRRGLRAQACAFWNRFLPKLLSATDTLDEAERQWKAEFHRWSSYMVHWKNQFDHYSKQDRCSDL

O=C(O)[C@H]1O[C@@H](Oc2cc3oc(-c4ccccc4)cc(=O)c3c(O)c2O)[C@H](O)[C@@H](O)[C@@H]1O [baicalin]
Inhibition of BChE activity (BChE [1]): significantly inhibited
Inhibition of AChE activity (AChE): significantly inhibited

O=c1c(O)c(-c2ccc(O)c(O)c2)oc2cc(O)cc(O)c12 [quercetin]
Docking score with BChE compared to donepezil (BChE [2]): stronger docking score
